Results reported in publication PMC9960274, “Peptidic Inhibitors and a Fluorescent Probe for the Selective Inhibition and Labelling of Factor XIIIa Transglutaminase” (Molecules, 2023).
Non-standard residues stand in square brackets, D forms with d. Residues, ends and D or L forms follow the SMILES beside them. ξ: configuration not given here. *: point of attachment. ONp = O=[N+]([O-])c1ccc(O*)cc1; ξE = NC(CCC(=O)O)C(=O)O; Cbz = O=C(OCc1ccccc1)*

Experiments:
[1] = biological target: T1, Thrombin-activated human FXIIIa (Homo sapiens, UniProt P00488); experiment: Fluorescence-quenched A101 isopeptidase assay of FXIIIa inhibition kinetics; type: biochemical; conditions: 0, 100, 200, 320 µM
T1 construct: purchased Zedira GmbH T070
T1 sequence (P00488 39-732 limits assumed): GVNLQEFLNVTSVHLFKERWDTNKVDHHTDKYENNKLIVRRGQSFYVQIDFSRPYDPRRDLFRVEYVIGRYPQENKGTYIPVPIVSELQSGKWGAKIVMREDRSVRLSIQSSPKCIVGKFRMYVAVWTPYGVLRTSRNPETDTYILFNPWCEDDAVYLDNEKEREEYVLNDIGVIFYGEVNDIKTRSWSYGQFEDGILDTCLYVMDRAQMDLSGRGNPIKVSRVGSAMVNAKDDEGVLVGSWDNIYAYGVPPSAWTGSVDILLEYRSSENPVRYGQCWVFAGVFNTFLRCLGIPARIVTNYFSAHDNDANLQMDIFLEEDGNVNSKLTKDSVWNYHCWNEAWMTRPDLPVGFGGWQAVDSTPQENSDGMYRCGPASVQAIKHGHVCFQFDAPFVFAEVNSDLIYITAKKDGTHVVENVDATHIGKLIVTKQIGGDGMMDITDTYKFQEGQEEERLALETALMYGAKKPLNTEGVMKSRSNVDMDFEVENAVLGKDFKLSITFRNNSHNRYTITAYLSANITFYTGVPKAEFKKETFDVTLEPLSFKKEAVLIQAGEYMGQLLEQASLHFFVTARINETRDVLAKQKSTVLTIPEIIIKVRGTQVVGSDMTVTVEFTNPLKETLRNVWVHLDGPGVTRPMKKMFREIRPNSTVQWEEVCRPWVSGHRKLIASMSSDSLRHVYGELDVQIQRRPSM

Human TG2 = biological target: T2, Human TG2 (Homo sapiens, UniProt P21980); set-up: method as in PMID 35158154, PMID 28858494; conditions: read-out: KM of substrate for TG2; cited from earlier work
T2 construct: made in house
T2 sequence (P21980 1-687): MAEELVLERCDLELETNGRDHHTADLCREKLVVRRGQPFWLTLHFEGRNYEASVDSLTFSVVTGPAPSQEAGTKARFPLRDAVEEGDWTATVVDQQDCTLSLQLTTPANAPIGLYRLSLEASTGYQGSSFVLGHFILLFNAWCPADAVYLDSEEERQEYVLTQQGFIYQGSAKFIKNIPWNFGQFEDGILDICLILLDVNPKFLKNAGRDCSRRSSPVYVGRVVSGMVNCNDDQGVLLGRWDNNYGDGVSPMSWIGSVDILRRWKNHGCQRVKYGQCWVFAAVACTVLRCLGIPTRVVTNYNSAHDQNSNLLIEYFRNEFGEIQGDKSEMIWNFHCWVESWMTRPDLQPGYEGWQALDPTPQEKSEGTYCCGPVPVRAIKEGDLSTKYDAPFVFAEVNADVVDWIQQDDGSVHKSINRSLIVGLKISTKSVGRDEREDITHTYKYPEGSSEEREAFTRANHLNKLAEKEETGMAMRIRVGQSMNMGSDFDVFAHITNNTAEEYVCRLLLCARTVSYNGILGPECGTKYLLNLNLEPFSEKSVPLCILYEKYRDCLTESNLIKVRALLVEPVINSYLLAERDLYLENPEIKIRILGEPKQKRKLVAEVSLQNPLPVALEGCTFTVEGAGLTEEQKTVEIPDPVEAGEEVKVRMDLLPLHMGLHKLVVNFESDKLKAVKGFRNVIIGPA

| Compound | traces in FXIIIa A101 inhibition assay (fluorescence interference control) [1] | Km (Human TG2) [µM] |
| --- | --- | --- |
| CN(C)c1cccc2c(S(N)(=O)=O)cccc12 [Dansyl amide] | nearly identical traces as those obtained using the dansylated inhibitor library |  |
| O=C(O)CNC(=O)C(CCC(=O)Oc1ccc([N+](=O)[O-])cc1)NC(=O)OCc1ccccc1 (centres unmarked) [AL5, Cbz-Glu(ɣ-p-nitrophenyl ester)Gly-OH] (Cbz-[ξE](ONp)-Gly-OH) |  | 10 |
